In US20240300941A1, “HPK1 INHIBITORS, PREPARATION METHOD AND APPLICATION THEREOF” (ZHUHAI YUFAN BIOTECHNOLOGIES CO., LTD., priority 2018, published 2024):

Tests used:
[1] = system: pSLP-76(Ser376) in Jurkat E6-1 cells; assay: Jurkat E6-1 pSLP-76(Ser376) HTRF experiment; type: cell-based; details: 4 hours compound incubation, anti-human CD3 antibody 20 minutes, Phospho-SLP-76 / SLP-76 HTRF
Method: Jurkat E6-1 cells were purchased from ATCC (Cat. No. TIB-152TM) and cultured overnight with RPMI 1640 containing 0.5% o FBS, after that 20 μL (10^7 cells/mL) cells were added to the experimental plates. Then the test compounds were diluted by three-fold gradient, and 10 different concentrations were prepared, and 5 μl of each was added to the experimental plate, and incubated for 4 hours in 37° C. incubator containing 5% CO2. Then 5 ul of 6× anti-human CD3 antibody (Biolegend, Cat. No. 300432) was added and incubated for 20 minutes in 37° C. incubator containing 5% CO2. Finally, the Phospho-SLP-76 and SLP-76 results were determined using the Cisbio Phospho-SLP-76 and SLP-76 HTRF assay kits (items: 63ADK076PEH and 63ADK077PEH, respectively). Based on the results, the IC50 of the compound is calculated.

[2] = target: HPK1 (Homo sapiens (Human), UniProt Q92918); assay: HPK1 ADP-Glo enzyme assay; type: biochemical; details: HPK1 protein 5 nM, MBP and ATP substrate, ADP-Glo readout
HPK1, sequence (Q92918 whole entry): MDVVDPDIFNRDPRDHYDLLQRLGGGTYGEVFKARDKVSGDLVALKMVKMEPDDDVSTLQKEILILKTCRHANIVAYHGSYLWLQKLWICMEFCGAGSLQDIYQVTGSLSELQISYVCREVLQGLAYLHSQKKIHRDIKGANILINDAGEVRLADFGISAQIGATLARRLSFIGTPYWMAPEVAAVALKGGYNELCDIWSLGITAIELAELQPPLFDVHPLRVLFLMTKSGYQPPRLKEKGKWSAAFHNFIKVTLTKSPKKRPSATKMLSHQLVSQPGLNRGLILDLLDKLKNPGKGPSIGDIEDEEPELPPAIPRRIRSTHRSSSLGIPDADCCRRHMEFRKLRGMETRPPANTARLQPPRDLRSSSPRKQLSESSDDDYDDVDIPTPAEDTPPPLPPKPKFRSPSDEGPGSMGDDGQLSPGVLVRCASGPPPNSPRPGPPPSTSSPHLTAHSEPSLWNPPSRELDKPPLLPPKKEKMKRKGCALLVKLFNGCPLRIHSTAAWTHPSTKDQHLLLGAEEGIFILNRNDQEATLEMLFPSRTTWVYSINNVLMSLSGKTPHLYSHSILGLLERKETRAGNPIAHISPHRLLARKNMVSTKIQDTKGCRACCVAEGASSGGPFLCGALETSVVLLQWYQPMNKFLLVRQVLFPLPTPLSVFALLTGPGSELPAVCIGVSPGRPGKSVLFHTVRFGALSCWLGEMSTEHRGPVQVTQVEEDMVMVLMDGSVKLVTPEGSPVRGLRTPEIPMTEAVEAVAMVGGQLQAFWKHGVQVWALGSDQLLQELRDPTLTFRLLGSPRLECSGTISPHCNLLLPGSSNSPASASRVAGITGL
Method: The buffer used in the enzyme assay contains 5 mM MOPS (pH=7.2), 2.5 mM β-Glycerol Phosphate, 0.4 mM EDTA, 1 mM EGTA, 0.05 mM DTT, 5 mM MgCl2. The compound was dissolved in 100% DMSO at the concentration was 10 mM. The initial concentration of the test was 5 uM, and ten data points were diluted by three-fold gradient, and each point was repeatedly measured twice. The HPK1 protein was purchased from Thermo (Cat. No. PV6355) and diluted to 2× stock solution at the concentration of 10 nM (the final concentration of the enzyme assay was 5 nM). 2.5 µl of 2×HPK1 protein was added to each well of the plate containing the test compound, centrifuged at 1000 rpm for 30 seconds, and then incubated at 25° C. for 15 minutes. MBP protein was purchased from Millipore (Cat. No. 13-110) and ATP was purchased from Sigma (Cat. No. A7699-5G) and the two were formulated into 2× working solutions at concentrations of 4 uM and 80 uM. Added 2.5 μl mixture of 2×MBP and ATP, centrifuged at 1000 rpm for 30 seconds, then incubated at 25° C. for 90 minutes. Then added 5 ul of ADP-Glo™ (Promega, Cat. No. V9102) to the assay plate and incubated […] at 25° C. for 60 minutes. Finally, 10 ul of the kinase assay reagent (Promega, Cat. No. V9102) was added to the assay plate, centrifuged at 1000 rpm for 30 seconds at 25° C. for 60 minutes, and the […] intensity was determined.

Q: How did the IC50 [1] turn out when `CN1CCC(c2ncc(-c3cnc(N)c(OCc4ccncc4)c3)s2)CC1` [A1] was run?
A: Its IC50 is less than 1000 nM.

Q: And the IC50 [2]?
A: The IC50 was less than 100 nM.

Q: With `CN1CCC(c2ncc(-c3cnc(N)c(OCc4ccccc4)c3)s2)CC1` [A2] as the compound, how does the IC50 [1] read?
A: The IC50 was 1000 to 50000 nM.

Q: And the IC50 [2]?
A: The IC50 was 100 to 1000 nM.

Q: With `CN1CCC(c2ncc(-c3cnc(N)c(OCc4cccc(C#CC(C)(C)O)c4)c3)s2)CC1` [A3] as the compound, how does the IC50 [1] read?
A: Its IC50 is less than 1000 nM.

Q: What does the source list for `CC(Oc1cc(-c2cnc(C3CCN(C)CC3)s2)cnc1N)c1ccncc1` (stereo not shown) [A4]?
A: IC50 [1]: 1000 to 50000 nM; IC50 [2]: 100 to 1000 nM

Q: Which results are given for `CN1CCC(c2ncc(-c3cnc(N)c(OCc4ccc(F)cc4)c3)s2)CC1` [A5]?
A: IC50 [1]: 1000 to 50000 nM; IC50 [2]: 100 to 1000 nM

Q: For `Nc1ncc(-c2cnc(C3CCNCC3)s2)cc1OCc1ccncc1` [A7], which IC50 [1] is on record?
A: Its IC50 is less than 1000 nM.

Q: `CN1CCC(c2ncc(-c3cnc(N)c(OCc4ccnc(Cl)c4)c3)s2)CC1` [A8] was tested. Which IC50 [1] did it give?
A: The IC50 was 1000 to 50000 nM.

Q: For `CN1CCC(c2ncc(-c3cnc(N)c(OCc4ccnc(C#CC(C)(C)O)c4)c3)s2)CC1` [A10], which IC50 [1] is on record?
A: The IC50 was less than 1000 nM.

Q: How did the IC50 [1] turn out when `CN1CCC(c2ncc(-c3cnc(N)c(OCc4ccnc(C#N)c4)c3)s2)CC1` [A11] was run?
A: Its IC50 is 1000 to 50000 nM.

Q: What about the IC50 [2] of the same compound?
A: The IC50 was 100 to 1000 nM.

Q: For `CN1CCN(c2ncc(-c3cnc(N)c(OCc4ccncc4)c3)s2)CC1` [A12], which IC50 [1] is on record?
A: The IC50 was less than 1000 nM.

Q: Which IC50 [1] does the source give for `Nc1ncc(-c2cnc(C3CCOCC3)s2)cc1OCc1ccncc1` [A13] here?
A: Its IC50 is less than 1000 nM.

Q: For `Cc1nc(C2CCN(C)CC2)sc1-c1cnc(N)c(OCc2ccncc2)n1` [A15], which IC50 [2] is on record?
A: The IC50 was 100 to 1000 nM.

Q: With `CSc1ncc(-c2cnc(N)c(OCc3cccc(C#CC(C)(C)O)c3)c2)s1` [A17] as the compound, how does the IC50 [1] read?
A: The IC50 was 1000 to 50000 nM.

Q: What about the IC50 [2] of the same compound?
A: Its IC50 is less than 100 nM.

Q: With `CC(C)(O)C#Cc1cccc(COc2cc(-c3cnc(Oc4ccccc4)s3)cnc2N)c1` [A18] as the compound, how does the IC50 [2] read?
A: The IC50 was 100 to 1000 nM.

Q: Which IC50 [1] does the source give for `CN1CCC(c2ncc(-c3cnc(N)c(OCc4cc(C#CC(C)(C)O)ccc4F)c3)s2)CC1` [A19] here?
A: Its IC50 is less than 1000 nM.

Q: What about the IC50 [2] of the same compound?
A: The IC50 was less than 100 nM.

Q: `CCC(C)c1ncc(-c2cnc(N)c(OCc3cccc(C#CC(C)(C)O)c3)c2)s1` (stereo not shown) [A20] was tested. Which IC50 [1] did it give?
A: The IC50 was 1000 to 50000 nM.

Q: And the IC50 [2]?
A: The IC50 was less than 100 nM.

Q: How did the IC50 [1] turn out when `CC(C)c1ncc(-c2cnc(N)c(OCc3cc(C#CC(C)(C)O)ccc3F)c2)s1` [A21] was run?
A: Its IC50 is less than 1000 nM.

Q: What about the IC50 [2] of the same compound?
A: Its IC50 is less than 100 nM.

Q: Which results are given for `CC1CN(c2ncc(-c3cnc(N)c(OCc4cccc(C#CC(C)(C)O)c4)c3)s2)CCN1C` (stereo not shown) [A22]?
A: IC50 [1]: < 1000 nM; IC50 [2]: < 100 nM

Q: Which results are given for `CC(C)(O)C#Cc1cccc(COc2cc(-c3cnc(C4CCOCC4)s3)cnc2N)c1` [A23]?
A: IC50 [1]: < 1000 nM; IC50 [2]: < 100 nM

Q: With `CN1CCCN(c2ncc(-c3cnc(N)c(OCc4cccc(C#CC(C)(C)O)c4)c3)s2)CC1` [A24] as the compound, how does the IC50 [1] read?
A: Its IC50 is less than 1000 nM.

Q: And the IC50 [2]?
A: The IC50 was less than 100 nM.

Q: Which IC50 [1] does the source give for `CN1CCN(c2ncc(-c3cnc(N)c(OCc4cccc(C#CC(C)(C)O)c4)c3)s2)CC1` [A25] here?
A: Its IC50 is less than 1000 nM.

Q: And the IC50 [2]?
A: Its IC50 is less than 100 nM.

Q: `CC1CN(c2ncc(-c3cnc(N)c(OCc4cccc(C#CC(C)(C)O)c4)c3)s2)CC(C)N1C` (stereo not shown) [A26] was tested. Which IC50 [1] did it give?
A: Its IC50 is less than 1000 nM.

Q: And the IC50 [2]?
A: Its IC50 is less than 100 nM.

Q: What does the source list for `CC(C)(O)C#Cc1cccc(COc2cc(-c3cnc(C4CCN(CC(F)(F)F)CC4)s3)cnc2N)c1` [A27]?
A: IC50 [1]: 1000 to 50000 nM; IC50 [2]: < 100 nM

Q: Which IC50 [2] does the source give for `CC(C)(O)C#Cc1cccc(COc2cc(-c3cnc(N4CCCCC4)s3)cnc2N)c1` [A29] here?
A: The IC50 was 100 to 1000 nM.

Q: How did the IC50 [2] turn out when `CC(C)(O)C#Cc1cccc(COc2cc(-c3cnc(C4CCCCC4)s3)cnc2N)c1` [A30] was run?
A: Its IC50 is 100 to 1000 nM.

Q: With `CC(C)(O)C#Cc1ccc(F)c(COc2cc(-c3cnc(C4CCNCC4)s3)cnc2N)c1` [A31] as the compound, how does the IC50 [1] read?
A: Its IC50 is less than 1000 nM.

Q: What about the IC50 [2] of the same compound?
A: Its IC50 is less than 100 nM.

Q: How did the IC50 [1] turn out when `CN1CCC(n2cc(-c3cnc(N)c(OCc4cccc(C#CC(C)(C)O)c4)c3)cn2)CC1` [A32] was run?
A: Its IC50 is less than 1000 nM.

Q: And the IC50 [2]?
A: Its IC50 is less than 100 nM.

Q: For `CN1CCC(c2ncc(-c3cnc(N)c(OCc4cccc(C#CC(C)(O)C(F)(F)F)c4)c3)s2)CC1` (stereo not shown) [A33], which IC50 [2] is on record?
A: Its IC50 is greater than 1000 nM.

Q: With `CN1CCC(c2ncc(-c3cnc(N)c(OCc4cccc(C#CC5(O)CCCC5)c4)c3)s2)CC1` [A34] as the compound, how does the IC50 [1] read?
A: The IC50 was less than 1000 nM.

Q: How did the IC50 [1] turn out when `Cc1ncc(-c2cnc(N)c(OCc3ccncc3)c2)s1` [A35] was run?
A: The IC50 was 1000 to 50000 nM.

Q: What about the IC50 [2] of the same compound?
A: The IC50 was 100 to 1000 nM.

Q: Which IC50 [1] does the source give for `CC(C)c1ncc(-c2cnc(N)c(OCc3ccncc3)c2)s1` [A36] here?
A: Its IC50 is 1000 to 50000 nM.

Q: Which IC50 [1] does the source give for `Nc1ncc(-c2cnc(C3CCCCC3)s2)cc1OCc1ccncc1` [A37] here?
A: Its IC50 is less than 1000 nM.

Q: With `C#Cc1cc(COc2cc(-c3cnc(C4CCN(C)CC4)s3)cnc2N)ccn1` [A39] as the compound, how does the IC50 [1] read?
A: Its IC50 is less than 1000 nM.

Q: What about the IC50 [2] of the same compound?
A: The IC50 was less than 100 nM.
